The values that follow are results of earlier work, collected in patent US11406849B2, “Amino alcohol-containing skin cleansing composition for removing keratotic plugs from skin” (KAO CORPORATION, priority 2017, dated 2022).

As to `CC(C)(N)CO` [Component (X2), 2-amino-2-methyl-1-propanol], the Solubility in water result is recorded as “readily dissolved in water”.
With `NC(CO)(CO)CO` [Component (X1), 2-amino-2-hydroxymethyl-1,3-propanediol], the Solubility in water result is on record as “readily dissolved in water”.
